Laboratory results published in paper PMC9386018, “A lymphatic-absorbed multi-targeted kinase inhibitor for myelofibrosis therapy” (Nature Communications, 2022).
Several values for one entry are separate records, joined by “and”; a condition that tells them apart may be missing. Equal entries are not always repeated.

Assays:
[1] = Compound quantitation in blood and mesenteric lymph nodes; assay type: in vivo, mouse; conditions: female, CD-1, mouse, mesenteric lymph nodes; mice, 30 min after oral 100-1000 mg kg^−1
Protocol: Whole blood and mesenteric lymph nodes were collected either 30 min or 4 h following compound administration and stored at −20 °C until future processing and analysis by the University of Michigan Pharmacokinetics Core as above, or as outlined below, to determine compound concentrations in each tissue. […] Data was generated from n ≥ 4 individual animals per compound per study group or dose.
(§1) Briefly, acetonitrile was added to a final concentration of 60–80% to bone marrow, whole blood, plasma, lymphatic fluid, lymphatic proteo-lipid sub-fractions, or mesenteric lymph node samples for compound extraction. Extraction was performed by shaking and/or bead rupture using a Precellys Evolution tissue homogenizer (Bertin Technologies SAS). […] Optimization of MS and MS/MS parameters for MRM quantitation and maximum sensitivity of individual compounds was performed using SCIEX Analyst software (AB Sciex). […] All LC-MS/MS acquisitions were performed with an independent standard curve for each group of analytes and for each individual run. All solvents utilized were of Optima LC-MS Grade (Fisher Scientific). Data was generated from n ≥ 2 individual animals per compound per study condition or dose.

[2] = Rat mesenteric lymph duct cannulation model: lymphatic fluid and blood; assay type: in vivo; conditions: anesthetized rats; for Lymphatic fluid Concentration (ng/mL or ng/g): individual animals
Protocol: A rat mesenteric lymph duct cannulation model was used to collect and quantify LP-182 in lymphatic fluid, blood, and lymphatic proteo-lipid sub-fractions similar to previously described methods[37],[40]. Male Sprague-Dawley rats (n = 7) were anesthetized by isoflurane (Piramel, PA) and placed on a heated pad maintained at 37 °C using a Kent Scientific (Torrington, CT) low flow vaporizer and SomnoSuite for pulse oximetry and thermal regulation, respectively. The carotid artery, mesenteric lymph duct and duodenum were cannulated, and normal saline was continuously infused into the duodenum at 1.7 mL h^−1 using a constant rate infusion pump. After approx. 0.5 h, 50 mg kg^−1 of LP-182 solubilized in ~1.7 mL of either Maisine CC or a mixture of 93% Maisine CC and 7% Labrasol (Gattefossé; Saint-Priest, France) was infused over 1 h into the duodenum, followed by normal saline (as above) for the duration of the experiment. Hourly fractions of lymphatic fluid were collected continually (rate of ~0.5–1.2 mL h^−1) for approx. 6 h, while arterial blood samples (10–20 µL) were collected once per hour and stored at −20 °C for future analysis. Lymphatic fluid time course samples were either frozen or pooled for subsequent fractionation by ultracentrifugation to isolate proteo-lipid sub-fractions similar to previously described methods. Separation of chylomicrons was achieved by layering lymphatic fluid under PBS (Gibco; ThermoFisher Scientific) in a polyallomer ultracentrifuge tube (Beckman, CA), and centrifugation in a L8-70M ultracentrifuge (Beckman, CA) at 202,048 x g using a SW40Ti rotor (Beckman, CA) for 95 min at 15 °C. Following centrifugation, the semi-solid chylomicron layer at the top of the centrifuge tube was recovered and stored at −20 °C for future analysis. After replacing the void volume with PBS, the bottom layer underwent further ultracentrifugation for an additional 16 h as above, at which time a viscous dispersion of VLDL was collected from the top of the tube, and an aqueous fraction containing LDL/HDL from the bottom, which were stored at −20 °C for future analysis. All lymphatic fluid, blood, and fractionated chylomicron, VLDL, and LDL/HDL samples were analyzed by mass spectrometry for quantitation of LP-182 as outlined below. Relative LP-182 in lymphatic fluid proteo-lipid sub-fractions was calculated as the amount of compound in a specified fraction as a percentage of the cumulative amount of compound measured in all fractions. […] Relative LP-182 in blood was calculated as the amount of compound measured in a specified temporal fraction of blood as a percentage of the amount of compound measured in an equal volume of the same temporal fraction of lymphatic fluid, with the average calculated from all fractions. Data was generated from n = 2 individual animals sampled per time point per study condition due to limitations in blood volume collection.
as §1, with “Standards and compound extraction from biological fluids or tissues was performed using similar protocols, all resulting in recoveries ≥90%. Briefly,” for “Briefly,”

[3] = 1 h intra-duodenal infusion 50 mg kg^−1, 6 h

## O=C(NOCCOCCOCCOCCC(=O)N1CCN(c2cnc3ccc(-c4cnc(Cl)c(NS(=O)(=O)c5ccc(F)cc5)c4)cc3n2)CC1)c1ccc(F)c(F)c1Nc1ccc(I)cc1F [LP-182, N-(2-(2-(2-(3-(4-(7-(6-chloro-5-((4-fluorophenyl)sulfonamido)pyridin-3-yl)quinoxalin-2-yl)piperazin-1-yl)-3-oxopropoxy)ethoxy)ethoxy)ethoxy)-3,4-difluoro-2-((2-fluoro-4-iodophenyl)amino)benzamide]
[1]
  concentration at 30 min: 5 to 15 µM
[2]; 1 h intra-duodenal infusion 50 mg kg^−1, 0 h
  Lymphatic fluid Concentration (ng/mL or ng/g): 0 ng/mL or ng/g
[2]; 1 h intra-duodenal infusion 50 mg kg^−1, 1 h
  Lymphatic fluid Concentration (ng/mL or ng/g): 1075.78 ng/mL or ng/g and 810.78 ng/mL or ng/g and 1128.99 ng/mL or ng/g and 810.9 ng/mL or ng/g and 526.14 ng/mL or ng/g and 195.59 ng/mL or ng/g and 1185.4 ng/mL or ng/g
[2]; 1 h intra-duodenal infusion 50 mg kg^−1, 2 h
  Lymphatic fluid Concentration (ng/mL or ng/g): 15938.1 ng/mL or ng/g and 4987.49 ng/mL or ng/g and 11915.5 ng/mL or ng/g and 8277.36 ng/mL or ng/g and 1691.13 ng/mL or ng/g and 3232.84 ng/mL or ng/g and 9168 ng/mL or ng/g
[2]; 1 h intra-duodenal infusion 50 mg kg^−1, 3 h
  Lymphatic fluid Concentration (ng/mL or ng/g): 11950.5 ng/mL or ng/g and 2555.63 ng/mL or ng/g and 6787.62 ng/mL or ng/g and 11961.6 ng/mL or ng/g and 3014.24 ng/mL or ng/g and 1175.13 ng/mL or ng/g and 13326 ng/mL or ng/g
[2]; 1 h intra-duodenal infusion 50 mg kg^−1, 4 h
  Lymphatic fluid Concentration (ng/mL or ng/g): 4407.66 ng/mL or ng/g and 5844.35 ng/mL or ng/g and 3822.74 ng/mL or ng/g and 8176.6 ng/mL or ng/g and 1916.83 ng/mL or ng/g and 592.35 ng/mL or ng/g and 6976.86 ng/mL or ng/g
[2]; 1 h intra-duodenal infusion 50 mg kg^−1, 5 h
  Lymphatic fluid Concentration (ng/mL or ng/g): 4529.02 ng/mL or ng/g and 3482.33 ng/mL or ng/g and 3674.05 ng/mL or ng/g and 7088.41 ng/mL or ng/g and 2106.37 ng/mL or ng/g and 169.31 ng/mL or ng/g and 7019.83 ng/mL or ng/g
[2]; [3]
  level in blood as % of total compound measured among each set of temporal fractions: 1.7%
  Lymphatic fluid Concentration (ng/mL or ng/g): 2432.36 ng/mL or ng/g and 2631.07 ng/mL or ng/g and 1756.69 ng/mL or ng/g and 8133.27 ng/mL or ng/g and 2059.99 ng/mL or ng/g and 330.98 ng/mL or ng/g and 2839 ng/mL or ng/g
